This note sets out measurements from ChEMBL document CHEMBL1201862, “PubChem BioAssay data set” (2004).

The target in assay [1] is T1, Eukaryotic translation initiation factor 2-alpha kinase 3 (Homo sapiens, UniProt Q9NZJ5).
T1 sequence (Q9NZJ5 whole entry): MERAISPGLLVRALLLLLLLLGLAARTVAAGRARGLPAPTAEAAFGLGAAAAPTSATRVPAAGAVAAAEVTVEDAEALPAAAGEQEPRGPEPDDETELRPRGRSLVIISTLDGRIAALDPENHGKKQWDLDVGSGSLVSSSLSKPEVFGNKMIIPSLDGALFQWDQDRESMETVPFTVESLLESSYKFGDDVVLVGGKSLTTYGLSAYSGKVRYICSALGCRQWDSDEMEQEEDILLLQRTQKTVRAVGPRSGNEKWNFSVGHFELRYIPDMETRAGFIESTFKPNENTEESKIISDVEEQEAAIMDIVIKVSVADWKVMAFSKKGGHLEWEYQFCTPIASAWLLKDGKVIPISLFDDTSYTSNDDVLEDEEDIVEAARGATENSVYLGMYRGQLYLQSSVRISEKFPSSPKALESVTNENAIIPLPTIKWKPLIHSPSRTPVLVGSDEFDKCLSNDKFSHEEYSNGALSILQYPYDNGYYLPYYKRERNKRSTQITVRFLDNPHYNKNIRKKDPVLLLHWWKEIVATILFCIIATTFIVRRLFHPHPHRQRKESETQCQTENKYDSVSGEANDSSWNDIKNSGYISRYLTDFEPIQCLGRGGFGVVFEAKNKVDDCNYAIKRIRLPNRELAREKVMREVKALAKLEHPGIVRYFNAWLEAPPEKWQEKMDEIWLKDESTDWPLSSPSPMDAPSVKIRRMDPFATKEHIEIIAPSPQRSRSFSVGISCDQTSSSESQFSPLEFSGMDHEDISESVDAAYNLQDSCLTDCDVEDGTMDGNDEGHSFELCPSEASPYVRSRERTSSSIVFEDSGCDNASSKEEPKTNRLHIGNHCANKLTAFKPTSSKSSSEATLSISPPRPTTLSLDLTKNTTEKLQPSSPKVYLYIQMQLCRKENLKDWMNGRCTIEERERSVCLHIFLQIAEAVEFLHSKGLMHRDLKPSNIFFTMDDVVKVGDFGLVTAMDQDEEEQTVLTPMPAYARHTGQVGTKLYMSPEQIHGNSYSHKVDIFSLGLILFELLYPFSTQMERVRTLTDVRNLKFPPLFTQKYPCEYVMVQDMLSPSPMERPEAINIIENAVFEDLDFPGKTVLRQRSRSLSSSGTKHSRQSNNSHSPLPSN
Description: Dose response cell-based high-throughput screening assay to measure PERK inhibition. [Related pubchem assays: 1416 ]. Format: functional.

Assay [2] deals with T1, Eukaryotic translation initiation factor 2-alpha kinase 3. Description: Counterscreen assay for PERK inhibitors: Dose response cell-based high throughput screening assay to measure inhibition of PERK at 6 hours. [Related pubchem assays: 1522, 1416 ]. Type of assay: functional.
A further assay concerns the target T2, Protein skinhead-1 (Caenorhabditis elegans, UniProt P34707).
T2 sequence (P34707 whole entry): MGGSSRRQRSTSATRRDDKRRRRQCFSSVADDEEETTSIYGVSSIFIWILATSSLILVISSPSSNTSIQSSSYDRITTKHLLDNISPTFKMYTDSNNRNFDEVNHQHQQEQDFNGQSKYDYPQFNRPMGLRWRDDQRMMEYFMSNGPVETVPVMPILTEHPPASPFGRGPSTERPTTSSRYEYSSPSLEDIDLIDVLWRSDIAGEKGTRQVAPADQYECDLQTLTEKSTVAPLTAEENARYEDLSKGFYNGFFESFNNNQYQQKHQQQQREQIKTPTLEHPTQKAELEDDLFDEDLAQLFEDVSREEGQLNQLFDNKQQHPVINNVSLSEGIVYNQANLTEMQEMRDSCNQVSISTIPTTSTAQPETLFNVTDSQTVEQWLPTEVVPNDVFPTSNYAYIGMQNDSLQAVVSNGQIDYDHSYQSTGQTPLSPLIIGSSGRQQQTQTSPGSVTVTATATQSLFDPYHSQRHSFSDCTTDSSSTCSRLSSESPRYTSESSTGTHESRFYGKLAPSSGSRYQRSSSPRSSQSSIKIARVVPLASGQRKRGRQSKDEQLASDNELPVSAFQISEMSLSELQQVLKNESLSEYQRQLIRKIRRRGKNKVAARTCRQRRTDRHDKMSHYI
Format: functional.

In a further assay the test system is HeLa. Nature of the assay: HeLa cell cytotoxicity, dose response, cytotoxicity control, 24 h, cherry-picked samples (AID 504726).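 Also: potency for cytotoxicity as loss of luminescence signal.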 Type of assay: functional, cell-based. Conditions: Homo sapiens.
The subject of the next assay is Salmon testes DNA. Description: DNA intercalators displacing acridine orange, dose response, artefact control for KSHV LANA DNA-binding inhibitor project, biochemical, fluorescence polarization, cherry-picked samples, set 2 (AID 504727). The arrangement: species or system Salmonidae.
Another assay addresses T3, ORF 73 (Human herpesvirus 8, UniProt O40947).
T3 sequence (O40947 whole entry): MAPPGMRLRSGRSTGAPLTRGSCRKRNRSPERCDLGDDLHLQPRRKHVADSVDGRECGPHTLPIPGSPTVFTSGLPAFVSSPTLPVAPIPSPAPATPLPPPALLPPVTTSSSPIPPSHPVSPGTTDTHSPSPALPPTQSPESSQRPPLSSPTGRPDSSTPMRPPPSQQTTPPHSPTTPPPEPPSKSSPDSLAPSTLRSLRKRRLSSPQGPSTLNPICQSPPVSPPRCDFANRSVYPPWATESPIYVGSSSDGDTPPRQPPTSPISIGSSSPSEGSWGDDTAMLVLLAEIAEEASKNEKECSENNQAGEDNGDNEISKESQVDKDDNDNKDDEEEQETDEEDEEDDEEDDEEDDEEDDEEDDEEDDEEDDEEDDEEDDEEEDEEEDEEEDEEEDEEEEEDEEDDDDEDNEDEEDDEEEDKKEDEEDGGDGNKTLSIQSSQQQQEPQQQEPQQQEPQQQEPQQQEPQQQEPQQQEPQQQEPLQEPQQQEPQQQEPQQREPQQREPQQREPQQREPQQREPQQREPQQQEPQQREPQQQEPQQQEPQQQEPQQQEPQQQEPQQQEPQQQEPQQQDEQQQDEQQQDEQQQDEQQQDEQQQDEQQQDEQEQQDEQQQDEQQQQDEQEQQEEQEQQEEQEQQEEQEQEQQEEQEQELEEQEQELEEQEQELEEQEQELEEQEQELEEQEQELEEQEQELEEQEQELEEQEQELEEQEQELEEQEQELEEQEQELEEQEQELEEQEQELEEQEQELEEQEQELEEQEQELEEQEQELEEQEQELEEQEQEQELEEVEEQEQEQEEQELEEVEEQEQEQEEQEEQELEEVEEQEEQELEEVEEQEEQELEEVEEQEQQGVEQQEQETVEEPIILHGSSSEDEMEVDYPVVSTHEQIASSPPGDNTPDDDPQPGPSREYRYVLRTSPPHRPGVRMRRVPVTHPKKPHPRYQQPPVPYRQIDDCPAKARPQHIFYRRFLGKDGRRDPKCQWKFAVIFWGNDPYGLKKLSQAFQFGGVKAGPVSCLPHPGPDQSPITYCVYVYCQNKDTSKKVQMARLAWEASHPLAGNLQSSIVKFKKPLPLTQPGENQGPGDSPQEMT
Description: inhibitors of C-LANA binding to LBS DNA, dose response, biochemical, fluorescence polarization, cherry-picked samples (AID 504725).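 Also: fluorescence polarization of a labeled DNA duplex reporting LANA DNA binding; potency is for inhibitors that block LANA binding to the DNA.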 On the set-up: species or system Human gammaherpesvirus 8.

Assay [3] has as its target T4, Endoribonuclease toxin MazF (Escherichia coli K-12, UniProt P0AE70).
T4 sequence (P0AE70 whole entry): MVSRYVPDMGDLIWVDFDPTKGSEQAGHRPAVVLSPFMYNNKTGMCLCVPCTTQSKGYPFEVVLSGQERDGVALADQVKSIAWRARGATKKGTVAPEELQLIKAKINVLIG
Description: MazF toxin RNase activators, dose response, biochemical, fluorescence, single-stranded RNA substrate, uHTS hits (AID 588481). Type of assay: functional.

In assay [4] the target is T4, Endoribonuclease toxin MazF. Nature of the assay: fluorescent RNA oligo signal without MazF, dose response, counter-screen for MazEF activator project, biochemical, fluorescence, single-stranded RNase substrate (AID 588502). Type of assay: functional.
For assay [5], the target named is Photoreceptor-specific nuclear receptor (Homo sapiens, UniProt Q9Y5X4). Type of assay: functional.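 Also: potency for compounds that break the NR2E3 corepressor complex and count as activators.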
Assay [6] concerns the target Peroxisome proliferator-activated receptor gamma/Nuclear receptor coactivator 1 (Homo sapiens, UniProt P37231). Nature of the assay: TR-FRET dose response biochemical High Throughput Screening assay for agonists of the steroid receptor coactivator 1 (SRC-1) recruitment by the peroxisome proliferator-activated receptor gamma (PPAR gamma): non-selective agonists. [Related pubchem assays (depositor defined):AID1300, AID1808, AID504735, AID631]. Type of assay: protein assay.

Assay [7] deals with Peroxisome proliferator-activated receptor gamma/Nuclear receptor coactivator 3 (Homo sapiens, UniProt P37231). Description: TR-FRET dose response biochemical High Throughput Screening assay for agonists of the steroid receptor coactivator 3 (SRC-3) recruitment by the peroxisome proliferator-activated receptor gamma (PPAR gamma): non-selective agonists. [Related pubchem assays: 1301 (Confirmation screen.), 1048 (Primary screen.)]. Type of assay: functional.

Assay [8] has as its target Peroxisome proliferator-activated receptor gamma/Nuclear receptor coactivator 2 (Homo sapiens, UniProt P37231). Description: TR-FRET dose response biochemical High Throughput Screening assay for agonists of the steroid receptor coactivator 2 (SRC-2) recruitment by the peroxisome proliferator-activated receptor gamma (PPAR gamma): non-selective agonists. [Related pubchem assays: 1297, 1032 ]. Type of assay: functional.

Assay [9] concerns the target Peroxisome proliferator-activated receptor gamma/Nuclear receptor corepressor 2 (Homo sapiens, UniProt P37231+Q9Y618). Type of assay: functional.
Assay [10] addresses Lysosomal acid glucosylceramidase (Homo sapiens, UniProt P04062). Description: Dose response cell-based high throughput screening assay to identify enhancers of beta-glucosidase activity. [Related pubchem assays: 784 ]. Type of assay: functional.
Assay [11] can be described thus: Cytotoxicity screening for potential Inhibitors of Bacterial Capsule Biogenesis. [Related pubchem assays (depositor defined):AID488970]. Format: functional.
The subject of the next assay is INS1. Description: beta cell apoptosis inhibitors, cytokine rescue, dose response, luminescence, retest (AID 449756).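 Also: cell death triggered by IL-1 beta plus TNF-alpha plus IFN-gamma mixture; protective hits raise ATP signal compared with cytokine alone wells.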 Format: functional, cell-based. Conditions: Rattus norvegicus, INS1.

Active and inactive are the calls of the source.

Peroxisome proliferator-activated receptor gamma/Nuclear receptor coactivator 3, sequence (P37231 whole entry): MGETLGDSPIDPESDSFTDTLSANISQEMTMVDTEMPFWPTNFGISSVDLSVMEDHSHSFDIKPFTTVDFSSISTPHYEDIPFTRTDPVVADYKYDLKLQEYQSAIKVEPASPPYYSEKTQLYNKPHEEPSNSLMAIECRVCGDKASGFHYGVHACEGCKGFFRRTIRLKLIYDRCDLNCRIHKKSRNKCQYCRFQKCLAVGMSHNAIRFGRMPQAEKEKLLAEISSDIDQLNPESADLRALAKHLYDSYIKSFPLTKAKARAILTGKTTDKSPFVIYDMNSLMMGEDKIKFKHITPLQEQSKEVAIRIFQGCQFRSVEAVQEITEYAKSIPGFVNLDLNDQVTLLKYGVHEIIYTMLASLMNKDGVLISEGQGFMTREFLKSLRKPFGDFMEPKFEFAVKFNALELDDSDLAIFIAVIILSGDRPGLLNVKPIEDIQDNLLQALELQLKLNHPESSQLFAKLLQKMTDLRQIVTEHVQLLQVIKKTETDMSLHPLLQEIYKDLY
Peroxisome proliferator-activated receptor gamma/Nuclear receptor coactivator 3, sequence (Q9Y6Q9 whole entry, further chain): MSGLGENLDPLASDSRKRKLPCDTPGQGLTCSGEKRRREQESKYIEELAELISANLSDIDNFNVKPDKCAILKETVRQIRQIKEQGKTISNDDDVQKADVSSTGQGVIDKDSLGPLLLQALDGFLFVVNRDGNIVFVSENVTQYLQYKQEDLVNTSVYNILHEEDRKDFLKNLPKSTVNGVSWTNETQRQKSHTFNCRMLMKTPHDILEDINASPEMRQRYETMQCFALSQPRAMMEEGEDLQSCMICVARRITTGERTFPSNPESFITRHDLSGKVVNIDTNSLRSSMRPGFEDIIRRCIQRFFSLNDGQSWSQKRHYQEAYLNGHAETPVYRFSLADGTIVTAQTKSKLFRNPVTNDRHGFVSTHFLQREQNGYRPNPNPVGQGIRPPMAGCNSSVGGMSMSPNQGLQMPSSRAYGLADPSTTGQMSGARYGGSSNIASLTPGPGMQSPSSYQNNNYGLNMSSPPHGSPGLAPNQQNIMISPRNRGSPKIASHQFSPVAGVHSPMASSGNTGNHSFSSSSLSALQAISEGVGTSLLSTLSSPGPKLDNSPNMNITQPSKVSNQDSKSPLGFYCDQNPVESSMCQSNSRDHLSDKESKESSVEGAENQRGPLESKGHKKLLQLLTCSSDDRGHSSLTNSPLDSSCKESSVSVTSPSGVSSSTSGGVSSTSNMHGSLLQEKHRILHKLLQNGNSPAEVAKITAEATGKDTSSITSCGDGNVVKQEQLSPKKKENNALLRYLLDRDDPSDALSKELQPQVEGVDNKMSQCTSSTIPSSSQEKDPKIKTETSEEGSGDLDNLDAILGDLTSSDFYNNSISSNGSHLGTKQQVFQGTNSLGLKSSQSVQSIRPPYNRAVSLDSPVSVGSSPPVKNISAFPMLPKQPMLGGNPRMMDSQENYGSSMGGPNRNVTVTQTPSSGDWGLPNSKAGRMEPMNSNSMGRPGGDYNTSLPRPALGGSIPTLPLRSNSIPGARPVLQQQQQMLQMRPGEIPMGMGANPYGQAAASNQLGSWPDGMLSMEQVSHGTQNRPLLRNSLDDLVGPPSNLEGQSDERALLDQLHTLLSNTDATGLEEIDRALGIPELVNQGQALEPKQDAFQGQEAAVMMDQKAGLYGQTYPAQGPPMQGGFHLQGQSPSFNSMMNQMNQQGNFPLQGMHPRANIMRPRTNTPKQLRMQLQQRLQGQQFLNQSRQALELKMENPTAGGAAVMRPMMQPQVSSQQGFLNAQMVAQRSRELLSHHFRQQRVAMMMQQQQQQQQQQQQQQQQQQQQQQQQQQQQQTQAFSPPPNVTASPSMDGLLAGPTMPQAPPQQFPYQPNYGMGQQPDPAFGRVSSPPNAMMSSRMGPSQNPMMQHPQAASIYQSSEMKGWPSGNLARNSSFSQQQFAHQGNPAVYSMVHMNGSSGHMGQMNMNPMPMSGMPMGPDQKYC
Peroxisome proliferator-activated receptor gamma/Nuclear receptor corepressor 2, sequence (P37231 whole entry): as the sequence (P37231 whole entry) above
Peroxisome proliferator-activated receptor gamma/Nuclear receptor corepressor 2, sequence (Q9Y618 whole entry): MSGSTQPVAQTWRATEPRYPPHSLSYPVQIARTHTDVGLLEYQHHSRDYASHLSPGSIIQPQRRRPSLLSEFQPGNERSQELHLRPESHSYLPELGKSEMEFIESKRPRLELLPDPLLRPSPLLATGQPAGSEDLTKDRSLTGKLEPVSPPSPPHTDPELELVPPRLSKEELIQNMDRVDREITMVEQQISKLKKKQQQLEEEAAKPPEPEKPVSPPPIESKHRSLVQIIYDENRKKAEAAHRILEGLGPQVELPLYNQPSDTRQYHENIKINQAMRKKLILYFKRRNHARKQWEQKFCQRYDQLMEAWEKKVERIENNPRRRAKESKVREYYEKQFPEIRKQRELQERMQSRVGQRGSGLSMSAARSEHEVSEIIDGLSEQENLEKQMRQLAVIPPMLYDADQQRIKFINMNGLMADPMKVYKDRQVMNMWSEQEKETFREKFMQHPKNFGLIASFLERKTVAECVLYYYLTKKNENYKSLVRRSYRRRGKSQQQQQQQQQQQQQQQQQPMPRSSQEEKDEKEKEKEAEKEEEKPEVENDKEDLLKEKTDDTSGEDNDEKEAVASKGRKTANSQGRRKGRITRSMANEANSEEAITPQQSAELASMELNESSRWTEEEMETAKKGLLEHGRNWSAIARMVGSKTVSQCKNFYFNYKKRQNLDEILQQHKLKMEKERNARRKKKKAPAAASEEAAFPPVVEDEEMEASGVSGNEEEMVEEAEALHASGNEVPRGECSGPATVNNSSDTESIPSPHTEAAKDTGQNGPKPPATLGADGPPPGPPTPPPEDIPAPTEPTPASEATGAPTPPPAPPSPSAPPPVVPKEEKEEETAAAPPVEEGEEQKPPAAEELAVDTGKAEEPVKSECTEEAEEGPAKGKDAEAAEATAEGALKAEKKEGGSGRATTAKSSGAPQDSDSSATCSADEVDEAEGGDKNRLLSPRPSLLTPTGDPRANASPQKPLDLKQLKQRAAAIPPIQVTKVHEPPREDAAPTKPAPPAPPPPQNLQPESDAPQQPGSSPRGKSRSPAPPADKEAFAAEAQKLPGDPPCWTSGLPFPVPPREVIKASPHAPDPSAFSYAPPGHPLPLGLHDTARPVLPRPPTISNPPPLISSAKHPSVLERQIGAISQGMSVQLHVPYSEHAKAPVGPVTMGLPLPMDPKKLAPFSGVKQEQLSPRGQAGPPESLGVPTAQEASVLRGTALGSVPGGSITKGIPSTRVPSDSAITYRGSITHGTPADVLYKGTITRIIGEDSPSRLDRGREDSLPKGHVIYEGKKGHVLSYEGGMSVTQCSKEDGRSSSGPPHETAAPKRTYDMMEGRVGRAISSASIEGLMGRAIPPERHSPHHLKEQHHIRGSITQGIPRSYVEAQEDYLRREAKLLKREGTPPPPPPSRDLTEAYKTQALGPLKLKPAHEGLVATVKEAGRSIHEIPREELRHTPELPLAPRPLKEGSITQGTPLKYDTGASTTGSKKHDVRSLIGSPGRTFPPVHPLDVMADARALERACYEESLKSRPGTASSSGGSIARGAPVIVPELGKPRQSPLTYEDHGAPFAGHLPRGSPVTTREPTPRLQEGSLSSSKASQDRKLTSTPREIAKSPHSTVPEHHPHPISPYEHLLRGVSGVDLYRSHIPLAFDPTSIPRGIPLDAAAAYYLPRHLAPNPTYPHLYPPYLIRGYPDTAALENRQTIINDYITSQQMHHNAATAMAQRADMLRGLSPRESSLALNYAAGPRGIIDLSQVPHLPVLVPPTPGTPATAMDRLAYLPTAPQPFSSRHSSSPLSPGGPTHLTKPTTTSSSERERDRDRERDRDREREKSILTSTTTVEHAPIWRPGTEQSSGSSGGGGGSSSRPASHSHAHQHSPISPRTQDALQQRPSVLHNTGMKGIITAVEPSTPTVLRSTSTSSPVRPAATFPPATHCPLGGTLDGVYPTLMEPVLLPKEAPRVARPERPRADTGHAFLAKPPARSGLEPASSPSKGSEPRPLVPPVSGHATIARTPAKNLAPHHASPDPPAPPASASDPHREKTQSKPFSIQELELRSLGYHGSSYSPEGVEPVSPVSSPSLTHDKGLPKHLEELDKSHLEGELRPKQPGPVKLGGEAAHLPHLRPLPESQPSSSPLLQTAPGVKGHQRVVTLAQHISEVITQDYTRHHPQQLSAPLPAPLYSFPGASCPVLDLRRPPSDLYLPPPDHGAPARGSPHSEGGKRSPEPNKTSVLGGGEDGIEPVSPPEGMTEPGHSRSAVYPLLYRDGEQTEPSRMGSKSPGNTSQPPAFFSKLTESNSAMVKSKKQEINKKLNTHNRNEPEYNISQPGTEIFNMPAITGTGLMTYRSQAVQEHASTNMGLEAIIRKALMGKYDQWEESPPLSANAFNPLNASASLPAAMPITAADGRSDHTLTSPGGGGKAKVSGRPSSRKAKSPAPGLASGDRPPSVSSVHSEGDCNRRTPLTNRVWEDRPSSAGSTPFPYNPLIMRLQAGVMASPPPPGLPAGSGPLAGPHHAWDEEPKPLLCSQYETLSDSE

With `CCOc1cc(C(N)=O)cc(Br)c1OC`, the EC50 in [1] and in [2] was > 55.7 µM (not active) each time. Further, the IC50 on Protein skinhead-1 was > 100 µM (inactive).

As for `COc1ccc2c(c1)c1nc3ccccc3nc1n2CC(=O)OC(C)C`, the values for the AC50 in the assay on HeLa, in the assay with Salmon testes DNA and on ORF 73 were 216 µM (active), 134 µM (active) and 77 µM (active), respectively. Also, the EC50 in [3] is > 99 µM (inactive); in [4] it was 19.6 µM (active).

Consider `COC(=O)c1cc(Br)c(=O)n(-c2nccs2)c1`, for which the IC50 in [5] was > 39.8 µM (not active); in assay [9], 6.29 µM (active). Further, the EC50 in assay [6] is > 79.4 µM (inactive); in assay [7], > 79.4 µM (not active); in assay [8], > 79.4 µM (not active).

Take `CC(=O)N1C(C(=O)O)CSC1c1cccc(C)c1` (stereo unspecified): in assay [10], the EC50 is on record as > 50 µM (not active).

For the compound `O=C(N/N=C/c1ccc(O)cc1O)c1ccc(NC(=O)C2CCCCC2)cc1`, the CC50 in assay [11] is 8.95 µM (active). Moreover, in the assay with INS1, the AC50 was 4.01 µM (active).
